Test results from the supplement of paper PMC10331698.
± gives the standard deviation of the averaged measurements.

Key:
Test in all cases: level (log10 ratio to DMSO vehicle control); higher = higher biomarker level / cell amount than vehicle control
Details in all cases: in DMSO
[1] = compound: FC(F)(F)C(F)(C(F)(F)F)C(F)(F)C(F)(F)CC1CO1 [3-(Perfluoro-3-methylbutyl)-1,2-propenoxide]
Procedure: (§1)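 BioMAP Diversity Plus panel of 12 human primary cell co-culture systems (3C, 4H, LPS, SAg, BT, BF4T, BE3C, CASM3C, HDF3CGF, KF3CT, MyoF, Mphg). Compounds were added 1 h before stimulation and left for 24 h (MyoF 48 h; BT 72 h for soluble read-outs or 6 d for IgG). Biomarkers were read by ELISA, cytotoxicity by SRB, PBMC viability and proliferation by Alamar Blue. Each well value was divided by the mean of 8 DMSO control wells on the same plate and log10 transformed; duplicate blinded samples were tested at 4 concentrations.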

[2] = compound: FC(F)(F)C(F)(F)C(F)(F)C(F)(F)C(F)(F)C(F)(F)I [Perfluoro-1-iodohexane]
Procedure: as §1

[3] = compound: FC(F)C(F)(F)COCC1CO1 [((2,2,3,3-Tetrafluoropropoxy)methyl)oxirane]
Procedure: as §1

[4] = compound: O=C(O)C(F)(F)C(F)(F)C(F)(F)F [Perfluorobutanoic acid]
Procedure: as §1

[5] = compound: O=C(O)C(F)(F)C(F)(F)OC(F)(F)F [Perfluoro-3-methoxypropanoic acid]
Procedure: as §1

[6] = compound: O=S(=O)(O)C(F)(F)C(F)(F)C(F)(F)C(F)(F)C(F)(F)C(F)(F)F [Perfluorohexanesulfonic acid]
Procedure: as §1

[7] = compound: OCC(F)(F)OC(F)(F)C(F)(F)OC(F)(F)CO [1H,1H,8H,8H-Perfluoro-3,6-dioxaoctane-1,8-diol]
Procedure: as §1

Test System | level (log10) ([1]; 6700 nM) | level (log10) ([1]; 20000 nM) | level (log10) ([2]; 6700 nM) | level (log10) ([2]; 20000 nM) | level (log10) ([2]; 60000 nM) | level (log10) ([3]; 6700 nM) | level (log10) ([3]; 20000 nM) | level (log10) ([3]; 60000 nM) | level (log10) ([4]; 6700 nM) | level (log10) ([4]; 20000 nM) | level (log10) ([4]; 60000 nM) | level (log10) ([5]; 6700 nM) | level (log10) ([5]; 20000 nM) | level (log10) ([5]; 60000 nM) | level (log10) ([6]; 6700 nM) | level (log10) ([6]; 20000 nM) | level (log10) ([6]; 60000 nM) | level (log10) ([7]; 6700 nM) | level (log10) ([7]; 20000 nM) | level (log10) ([7]; 60000 nM)
lMphg:CXCL8/IL-8 | 0.0165 ± 0.035 | 0.052 ± 0.023 | -0.0075 ± 0.039 | 0.0325 ± 0.016 | 0.0585 ± 0.064 | -0.0125 ± 0.066 | -0.001 ± 0.017 | -0.005 ± 0.011 | -0.022 ± 0.014 | -0.017 ± 0.0028 | 0.0165 ± 0.04 | -0.03 ± 0.065 | -0.0275 ± 0.025 | -0.001 ± 0.044 | 0.029 ± 0.11 | 0.052 ± 0.088 | 0.169 ± 0.18 | 0.0065 ± 0.079 | 0.007 ± 0.072 | 0.0235 ± 0.1
KF3CT:CCL2/MCP-1 | -0.004 ± 0.03 | 0.022 ± 0.04 | 0.0225 ± 0.032 | -0.015 ± 0.0014 | -0.0185 ± 0.047 | -0.0245 ± 0.0021 | -0.0045 ± 0.026 | 0.012 ± 0.013 | -0.028 ± 0.0099 | -0.0325 ± 0.0035 | 0.0205 ± 0.023 | 0.0035 ± 0.011 | -0.0165 ± 0.0092 | -0.011 ± 0.013 | 0.0075 ± 0.032 | -0.001 ± 0.013 | 0.0205 ± 0.023 | -0.0075 ± 0.026 | -0.022 ± 0.011 | 0.0235 ± 0.061
MyoF:CXCL8/IL-8 | 0.0045 ± 0.00071 | 0.0185 ± 0.0021 | 0.021 ± 0.041 | 0.023 ± 0.041 | 0.0385 ± 0.028 | -0.0175 ± 0.005 | -0.0145 ± 0.018 | 0.0095 ± 0.025 | -0.03 ± 0.1 | -0.0355 ± 0.073 | 0.025 ± 0.024 | 0.001 ± 0.033 | -0.0165 ± 0.0092 | 0.0475 ± 0.0078 | 0.001 ± 0.061 | -0.0185 ± 0.063 | -0.018 ± 0.051 | 0.006 ± 0.11 | 0.0205 ± 0.088 | 0.0365 ± 0.069
3C:CD141/Thrombomodulin | -0.001 ± 0.017 | -0.0245 ± 0.018 | -0.025 ± 0.013 | -0.023 ± 0.014 | -0.0015 ± 0.005 | -0.007 ± 0.0085 | -0.0185 ± 0.049 | -0.0145 ± 0.039 | -0.0095 ± 0.026 | -0.0105 ± 0.026 | -0.0105 ± 0.04 | 0.0005 ± 0.087 | -0.0245 ± 0.036 | -0.0215 ± 0.023 | -0.008 ± 0.035 | -0.015 ± 0.023 | -0.004 ± 0.0028 | -0.003 ± 0.013 | -0.0075 ± 0.015 | 0.01 ± 0.0085
HDF3CGF:Collagen III | -0.0295 ± 0.049 | -0.049 ± 0.081 | -0.0405 ± 0.066 | -0.0755 ± 0.0021 | -0.178 ± 0.13 | -0.002 ± 0.037 | -0.0115 ± 0.00071 | -0.0035 ± 0.011 | -0.014 ± 0.011 | -0.004 ± 0.016 | 0.0135 ± 0.029 | -0.0025 ± 0.0078 | 0.009 ± 0.024 | 0.039 ± 0.05 | -0.0005 ± 0.022 | 0.0005 ± 0.015 | 0.0105 ± 0.043 | -0.0035 ± 0.0078 | -0.0105 ± 0.0078 | 0.0165 ± 0.05
KF3CT:SRB | -0.004 ± 0.0042 | -0.0085 ± 0.0064 | -0.0075 ± 0.00071 | -0.0065 ± 0.00071 | 0 ± 0.011 | -0.0085 ± 0.0035 | -0.0055 ± 0.0092 | 0.012 ± 0.034 | -0.008 ± 0.0042 | -0.0005 ± 0.00071 | 0.006 ± 0.018 | -0.0145 ± 0.0035 | -0.009 ± 0.0014 | -0.002 ± 0.013 | -0.0015 ± 0.0021 | -0.0095 ± 0.005 | 0.0005 ± 0.023 | -0.002 ± 0.0057 | -0.0025 ± 0.0021 | 0.0075 ± 0.023
3C:CD106/VCAM-1 | -0.0275 ± 0.019 | -0.0005 ± 0.013 | 0.003 ± 0.024 | 0.0075 ± 0.018 | 0 ± 0.047 | -0.0005 ± 0.0092 | -0.0225 ± 0.023 | -0.0125 ± 0.011 | -0.002 ± 0.0028 | -0.009 ± 0.0071 | -0.0225 ± 0.011 | -0.0015 ± 0.0064 | -0.009 ± 0.024 | 0.0015 ± 0.018 | -0.0085 ± 0.026 | -0.029 ± 0.0042 | -0.014 ± 0.025 | -0.0365 ± 0.021 | -0.0295 ± 0.019 | -0.016 ± 0.024
